Here are results for 14 molecules from PubChem BioAssay (NCI).

Holding throughout (assay): NCI-60 cell line screen, 48 h
Experiment [1] deals with UACC-62 melanoma.
Experiment [2] has as its system PC-3 prostate.
The subject of experiment [3] is MOLT-4 leukemia.
Experiment [4] relates to SF-295 CNS.
Experiment [5] relates to UACC-257 melanoma.
Experiment [6] concerns LOX IMVI melanoma.
In experiment [7] the test system is NCI-H226 lung.
The subject of experiment [8] is MDA-MB-231 breast.
For experiment [9], the system named is HS 578T breast.
Experiment [10] deals with T-47D breast.
The test system of experiment [11] is SW-620 colon.
Experiment [12] has as its system SR leukemia.
Experiment [13] relates to OVCAR-4 ovarian.
Experiment [14] has as its system A549 NSCLC.
In experiment [15] the test system is RPMI-8226 leukemia.
Experiment [16] concerns SK-MEL-2 melanoma.
Experiment [17] has as its system SK-OV-3 ovarian.
For experiment [18], the system named is NCI-H522 lung.
Experiment [19] concerns HL-60(TB) leukemia.
Experiment [20] has as its system RXF 393 renal.

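A five-concentration, 48-hour dose response in 96-well plates underlies each endpoint, interpolated linearly between surrounding concentrations. The concentration for full growth arrest is given as TGI.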 Some results are limits rather than exact numbers.

In the case of `C[S+](C)CC(=O)c1ccc2c(c1)Sc1ccccc1O2`, the TGI in [1] is 9.38 µM; in experiment [2], 4.03 µM; in [3], greater than 94.4 µM; in [4] it was 16 µM; in experiment [5], 18.2 µM; in experiment [6] it was 20.9 µM. Further, the TGI in experiment [7] is 11.5 µM; in experiment [8], 18.7 µM; in experiment [9], 22.1 µM; in experiment [10], greater than 44.4 µM; in [11] it was greater than 43.2 µM; in experiment [12], greater than 50.9 µM. Further, the TGI in [13] is 15.4 µM; in experiment [14], 18.1 µM; in [15] it was greater than 39.2 µM; in [16] it was 10 µM; in [17], 19.6 µM; in experiment [18] it was 2.5 µM. The TGI in experiment [19] was greater than 100 µM; in experiment [20] it was 9.23 µM.

On to `COC(=O)C1=C(O)CCCC(CCC(C)=O)=C1`, for which the TGI in experiment [1], in experiment [2], in experiment [3], in experiment [4], in experiment [5] and in experiment [6] was greater than 100 µM each time. Besides, the TGI is greater than 100 µM in [7]; greater than 100 µM in experiment [8]; greater than 100 µM in experiment [9]; greater than 100 µM in [10]; greater than 100 µM in [11]; 66 µM in experiment [12]. For the same molecule, the TGI is greater than 100 µM in [13]; greater than 100 µM in experiment [14]; greater than 100 µM in experiment [15]; greater than 100 µM in experiment [16]; greater than 100 µM in experiment [17]; 31.1 µM in experiment [18]. Besides, the TGI in experiment [19] is 43.8 µM; in [20], greater than 100 µM.

With `CCSC1=N/C(=C/c2ccccc2O)C(=O)N1`, the TGI in [1], in [2], in [3], in experiment [4], in experiment [5] and in experiment [6] was greater than 100 µM throughout. Besides, the TGI in experiment [7], in experiment [8], in [9], in experiment [10], in experiment [11] and in [12] was greater than 100 µM throughout. Moreover, the TGI in experiment [14], in [15], in [16], in experiment [17], in experiment [18] and in [19] was greater than 100 µM in each case. The TGI in [20] is 68.1 µM.

With `CCCC(=O)OCC1OC(n2cc(F)c(=O)[nH]c2=O)C(F)C1OC(=O)CCC` (stereo not drawn), the TGI in experiment [1], in experiment [2], in [3], in experiment [4], in [5] and in experiment [6] was greater than 100 µM each time. Further, the TGI in experiment [7], in experiment [8], in experiment [9], in [10], in [11] and in experiment [12] was greater than 100 µM throughout. Besides, the TGI in experiment [13], in [14], in experiment [15], in experiment [16], in [17] and in experiment [18] was greater than 100 µM in each case. Moreover, the TGI in [19] and in experiment [20] was greater than 100 µM throughout.

For the molecule `Nc1nc(NCC2(CO)CCC2)cc(=O)[nH]1`, the TGI in experiment [1], in experiment [2], in experiment [3], in experiment [4], in experiment [5] and in experiment [6] was greater than 100 µM each time. The TGI in experiment [7], in experiment [8], in [9], in experiment [10], in [11] and in [12] was greater than 100 µM throughout. Moreover, the TGI in experiment [13], in [14], in experiment [15], in experiment [16], in experiment [17] and in [18] was greater than 100 µM in each case. Besides, the TGI in [19] and in [20] was greater than 100 µM in each case.

Regarding `O=C1CCCCC(=O)Nc2ccccc2N1`, the TGI in experiment [1], in experiment [2], in experiment [3], in experiment [4], in experiment [5] and in [6] was greater than 100 µM each time. Moreover, the TGI in experiment [7], in [8], in [9], in experiment [10], in experiment [11] and in [12] was greater than 100 µM in each case. The TGI in [13], in experiment [14], in experiment [15], in [16], in [17] and in experiment [18] was greater than 100 µM each time. The TGI in experiment [19] and in [20] was greater than 100 µM each time.

As to `COc1ccc(N=Nc2ccc3oc(=O)c(C(=O)Nc4ccc(Cl)cc4)cc3c2)cc1`, the TGI in experiment [2], in experiment [3], in experiment [4], in experiment [5], in experiment [6] and in experiment [7] was greater than 10 µM throughout. For the same molecule, the TGI in experiment [8], in experiment [9], in experiment [10], in experiment [11], in [12] and in experiment [13] was greater than 10 µM in each case. The TGI in experiment [15], in experiment [16], in experiment [17], in [18] and in [20] was greater than 10 µM throughout.

Regarding `C[N+](C)(C)CC(=O)N/N=C(/CC1OC(=O)c2ccccc21)c1ccccc1O` (stereo not drawn), the TGI in [1] was 72.1 µM; in experiment [2], greater than 100 µM; in experiment [3], 42.4 µM; in experiment [4], greater than 100 µM; in [5] it was 78.9 µM; in experiment [6] it was 43.2 µM. For the same molecule, the TGI is 57.4 µM in experiment [7]; greater than 100 µM in experiment [8]; greater than 100 µM in experiment [9]; greater than 100 µM in experiment [10]; greater than 100 µM in [11]; 34 µM in experiment [12]. In addition, the TGI in [13] was greater than 100 µM; in experiment [14], greater than 100 µM; in experiment [15], 22.1 µM; in experiment [16] it was greater than 100 µM; in experiment [17], greater than 100 µM; in [18], greater than 100 µM. In addition, the TGI in experiment [19] worked out at 52.3 µM; in experiment [20], 86.4 µM.

Regarding `CCCCCCCCCCCCCCCC(=O)OC(COC(C)=O)CO[P+](=O)O` (stereo not drawn), the TGI was greater than 100 µM in [1]; greater than 100 µM in experiment [2]; 80.7 µM in experiment [3]; 35.4 µM in [4]; greater than 100 µM in [5]; 63.9 µM in [6]. Moreover, the TGI is 50.5 µM in [8]; 36.6 µM in experiment [9]; greater than 100 µM in experiment [10]; greater than 100 µM in [11]; 62 µM in experiment [12]; greater than 100 µM in experiment [13]. Moreover, the TGI in experiment [14] was 36.5 µM; in experiment [15], greater than 100 µM; in [16], 40.6 µM; in experiment [18] it was 36.2 µM; in experiment [19], greater than 100 µM; in [20], greater than 100 µM.

In the case of `Cc1sc(N)c(S(=O)(=O)c2ccccc2)c1C`, the TGI in experiment [1], in [2], in [3], in experiment [4], in [5] and in experiment [7] was greater than 100 µM in each case. The TGI in [8], in experiment [9], in experiment [10], in experiment [11], in experiment [12] and in experiment [13] was greater than 100 µM throughout. Further, the TGI in experiment [14], in experiment [15], in experiment [16], in [17], in [18] and in experiment [19] was greater than 100 µM each time. Besides, the TGI in experiment [20] was greater than 100 µM.

As for `COc1cc2ccc1OCc1cccc(n1)COc1ccc(cc1OC)C=Nc1ccc(cc1)-c1ccc(cc1)N=C2`, the TGI in experiment [1], in experiment [2], in [3], in experiment [4], in [5] and in experiment [6] was greater than 100 µM in each case. Further, the TGI in [7], in experiment [8], in [9], in experiment [10], in experiment [11] and in experiment [12] was greater than 100 µM throughout. For the same molecule, the TGI in [13], in experiment [14], in experiment [16], in [17], in [18] and in experiment [19] was greater than 100 µM in each case. The molecule further showed a TGI in [20] greater than 100 µM.

In the case of `S=C1N=C(Cl)/C(=C\c2ccco2)N1`, the TGI in [1], in experiment [2], in [4], in [5], in experiment [6] and in [7] was greater than 100 µM each time. In addition, the TGI in experiment [8], in [9], in experiment [10], in experiment [11], in [12] and in experiment [13] was greater than 100 µM throughout. The TGI in experiment [14], in experiment [15], in [16], in experiment [17], in experiment [18] and in experiment [19] was greater than 100 µM throughout. The same molecule returned a TGI in experiment [20] greater than 100 µM.

On to `COc1ccc(CCNC(=O)CCc2ccccc2CO)cc1OC`, for which the TGI in [1], in [2], in [3], in [4], in [5] and in experiment [7] was greater than 100 µM in each case. For the same molecule, the TGI in experiment [8], in experiment [9], in [10], in experiment [11], in experiment [12] and in experiment [13] was greater than 100 µM throughout. The TGI in [14], in [15], in [16], in [17], in experiment [18] and in experiment [19] was greater than 100 µM throughout. In experiment [20], this molecule showed a TGI greater than 100 µM.

Consider `CNC(=O)CNC(=O)C(Cc1ccc(NC(=O)CCCCC(C)=O)cc1)NC(=O)C(CCC(=O)OCc1ccccc1)NC(=O)OC(C)(C)C` (stereo not drawn), for which the TGI in experiment [1], in [2], in [3], in [4], in experiment [6] and in experiment [7] was greater than 100 µM throughout. The TGI in [8], in experiment [9], in [10], in experiment [11], in experiment [12] and in experiment [13] was greater than 100 µM in each case. Besides, the TGI in experiment [14], in experiment [15], in experiment [17], in [18], in experiment [19] and in [20] was greater than 100 µM throughout.
